From ChEMBL document CHEMBL1201862, “PubChem BioAssay data set” (2004)
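A five-concentration, 48-hour dose response in 96-well plates underlies each endpoint, interpolated linearly between surrounding concentrations. The concentration for 50% growth inhibition is given as GI50.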 Calls of active or inactive are those of the source. Cut-off read from the data, not from the text of the source: active = GI50 up to about 1.1 µM and inactive = higher.

Tests used:
Test in all cases: NCI anticancer screen, dose series, 48 h
[1] = test system: Malme-3M
[2] = test system: MCF7
[3] = test system: HCC 2998
[4] = test system: PC-3
[5] = test system: A498
[6] = test system: SK-MEL-28
[7] = test system: KM12
[8] = test system: DU-145
[9] = test system: MDA-MB-435
[10] = test system: M14
[11] = test system: MOLT-4
[12] = test system: EKVX
[13] = test system: SNB-75
[14] = test system: IGROV-1
[15] = test system: HOP-92
[16] = test system: T47D
[17] = test system: HOP-62
[18] = test system: 786-0
[19] = test system: SR
[20] = test system: HL-60

Measured: GI50

Cc1n[nH]c(=O)n1-n1cccc1
inactive: [1] > 100 µM | [2] > 100 µM | [3] > 100 µM | [4] > 100 µM | [5] > 100 µM | [6] > 100 µM | [7] > 100 µM | [8] > 100 µM | [9] > 100 µM | [10] > 100 µM | [11] > 100 µM | [12] > 100 µM | [13] > 100 µM | [14] > 100 µM | [15] > 100 µM | [16] > 100 µM | [17] > 100 µM | [18] > 100 µM

COc1ccc2c(c1)-c1[nH]c3ccc(OC)cc3c1CC2
inactive: [1] 15 µM | [2] 24.9 µM | [3] 15.6 µM | [4] 11.4 µM | [6] 16.4 µM | [7] 4.86 µM | [8] 17.1 µM | [9] 17.4 µM | [10] 15 µM | [11] 11 µM | [12] 7.28 µM | [19] 13.6 µM | [13] 13.5 µM | [14] 13.6 µM | [15] 19.2 µM | [16] 8.05 µM | [17] 16.3 µM | [18] 17.5 µM

Cc1cn(C2C=CC(COP(=O)(OCC3=CC(=O)c4ccccc4C3=O)N(C)CCCCCl)O2)c(=O)[nH]c1=O (stereo unspecified)
inactive: [2] 6.98 µM | [3] 1.24 µM | [4] 12.1 µM | [6] 5.15 µM | [7] 10.6 µM | [8] 1.57 µM | [9] 1.94 µM | [10] 1.18 µM | [13] 1.55 µM | [14] 10.6 µM | [16] 2.09 µM | [17] 11.7 µM | [20] 1.42 µM | [18] 12.7 µM
active: [1] 0.363 µM | [11] 0.15 µM | [19] 0.0473 µM | [15] 0.074 µM

COc1cccc2c1OC1c3ccccc3OCC1C2 (stereo unspecified)
active: [13] < 0.01 µM
inactive: [1] > 100 µM | [2] > 100 µM | [3] > 100 µM | [4] 82.6 µM | [5] > 100 µM | [7] > 100 µM | [8] > 100 µM | [9] > 100 µM | [10] > 100 µM | [11] 96.2 µM | [12] 44.2 µM | [19] > 100 µM | [14] 41.1 µM | [16] 44.1 µM | [17] > 100 µM | [18] > 100 µM

COP(=O)(OC)C(O)/C=C(\Cl)c1ccc(Cl)cc1 (stereo unspecified)
inactive: [1] > 100 µM | [2] 96.4 µM | [4] 31.6 µM | [6] > 100 µM | [7] > 100 µM | [8] > 100 µM | [9] 40.7 µM | [10] 62.1 µM | [11] 28.1 µM | [12] > 100 µM | [19] 21.3 µM | [13] > 100 µM | [14] > 100 µM | [15] 18.9 µM | [16] 25.3 µM | [17] 28.4 µM | [20] 32.9 µM | [18] 19.2 µM

O=C(O)CC(Sc1ccccc1)c1ccccc1 (stereo unspecified)
inactive: [1] > 100 µM | [2] > 100 µM | [4] > 100 µM | [5] > 100 µM | [6] > 100 µM | [7] > 100 µM | [8] > 100 µM | [9] > 100 µM | [10] > 100 µM | [11] > 100 µM | [12] > 100 µM | [13] > 100 µM | [14] > 100 µM | [15] > 100 µM | [16] > 100 µM | [17] > 100 µM | [20] > 100 µM | [18] > 100 µM

O=C(O)c1ccccc1C(=O)Nc1cc2c(cc1Br)-c1ccccc1C2=O
inactive: [1] > 100 µM | [2] > 100 µM | [3] 23.2 µM | [4] > 100 µM | [5] > 100 µM | [6] 6.61 µM | [7] > 100 µM | [8] 64.4 µM | [9] > 100 µM | [10] > 100 µM | [11] 79.8 µM | [12] > 100 µM | [13] 47.5 µM | [14] > 100 µM | [15] 48.1 µM | [16] > 100 µM | [17] > 100 µM | [20] 92.5 µM | [18] > 100 µM
